Reference: paper PMC12391994, “Synthesis of a fac-Tricarbonylrhenium(I) Complex with Pyrithione, Its Physicochemical Characterization, and Assessment of Biological Effects” (ACS Omega, 2025)
Where “and” joins values, the source holds several entries; their conditions need not be identical. Equal entries are not always repeated.

How the values were obtained:
[1] = tested on: S. aureus MRSA ATCC 43300; test: Antibacterial MIC assay, S. aureus MRSA ATCC 43300; assay type: cell-based, Staphylococcus aureus; details: 18 h, visual inspection
Procedure: (§1) The antibacterial effect of the complex was tested against the Gram-negative strain Escherichia coli (E. coli) ATCC 25922, the Gram-positive reference strain Staphylococcus aureus (S. aureus) ATCC 25923, and the methicillin-resistant S. aureus MRSA ATCC 43300 strain. MRSA strains are responsible for several difficult-to-treat hospital-acquired infections.
(§2) The following bacterial strains were used in our experiments: Gram-positive S. aureus American Type Culture Collection (ATCC) 25923 as the methicillin-susceptible reference bacterial strain; methicillin-resistant S. aureus ATCC 43300 (MRSA) strain; E. coli ATCC 25922 as a Gram-negative bacterial strain.
(§3) MIC values of the complexes were determined in 96-well plates based on the Clinical and Laboratory Standard Institute guidelines (CLSI guidelines). The stock solutions of the compound (dissolved in DMSO at 5 mM concentration) were diluted in 100 μL of Mueller Hinton Broth. Then, 10^–4 dilution of an overnight bacterial culture in 100 μL of medium was added to each well, with the exception of the medium control wells.

E. coli ATCC 25922 = test: Antibacterial MIC assay, E. coli ATCC 25922; assay type: cell-based, Escherichia coli; details: 18 h, visual inspection
Procedure: as §1, §2, §3

cathepsin V = target: T1, cathepsin V (Homo sapiens, UniProt O60911); test: Relative inhibition of cathepsin V; assay type: biochemical; details: 50 μM; substrate Z-Phe-Arg-AMC; pH 5.5
T1 construct: made in house; host or cells: Pichia pastoris
Description: Relative inhibition is expressed as a percentage of the decrease in reaction velocity in the presence of an inhibitor, in comparison to the reaction velocity in the absence of an inhibitor. For that purpose, the specific fluorogenic substrates Z-Arg-Arg-7-amido-4-methylcoumarin (Z-Arg-Arg-AMC) and 2-aminobenzoyl (Abz)-Gly-Ile-Val-Arg-Ala-Lys-(Dnp)-OH were used for cathepsin B endopeptidase and exopeptidase activities, respectively, and Z-Phe-Arg-AMC was used for cathepsin L and V activities.
(§4) Human recombinant cathepsin B was expressed in E. coli, recombinant cathepsin V was expressed in Pichia pastoris, and human recombinant cathepsin L was expressed in E. coli, as reported. − For the determination of cathepsin B endopeptidase and exopeptidase activities, 100 mM phosphate buffer (pH 6.0) and 60 mM acetate buffer (pH 5.0) were used, respectively, and for the determination of cathepsin V and L activities, 100 mM acetate buffer (pH 5.5) was used. All buffers contained 0.1% PEG 8000 (Sigma-Aldrich, St. Louis, MO), 5 mM cysteine, and 1.5 mM EDTA. Prior to the assay, the enzymes were activated in the assay buffer for 5 min at 37 °C.
To determine the effect of inhibitors on enzyme activity, the following substrates were used: Z-Arg-Arg-AMC (final concentration 5 μM, Z-RR-AMC; Bachem, Bubendorf, Switzerland) for cathepsin B endopeptidase activity, Abz-Gly-Ile-Val-Arg-Ala-Lys-(Dnp)-OH (final concentration 1 μM, Abz-GIVRAK-(Dnp)-OH; Bachem) for cathepsin B exopeptidase activity, and Z-Phe-Arg-AMC (final concentration 2 μM, Z-FR-AMC; Bachem) for cathepsin V and L activity. The substrate ([…]) at a final concentration and inhibitor ([…]) at a concentration of 50 μM were added to the wells of a black microplate. The reaction was then initiated by adding 90 μL of activated enzyme (final concentrations: 5 nM cathepsin B for its endopeptidase activity, 0.5 nM cathepsin B for its exopeptidase activity, 2.5 ng/mL for cathepsin V, and 0.02 nM for cathepsin L) in the assay buffer. The formation of fluorescent degradation products during the reaction was continuously monitored at 460 ± 10 nm with excitation at 380 ± 20 nm for Z-Arg-Arg-AMC and Z-Phe-Arg-AMC and at 420 ± 10 nm with excitation at 320 ± 20 nm for Abz-Gly-Ile-Val-Arg-Ala-Lys(Dnp)-OH at 37 °C on a Tecan Infinite M1000 (Mannedorf, Switzerland) spectrofluorometer. All assay mixtures contained 5% (v/v) DMSO. To prevent false-positive inhibition due to the formation of compound aggregates, 0.01% Triton X-100 was used. All measurements were performed in triplicate and repeated twice. The relative inhibition was calculated using the following equation: relative inhibition (%) = 100(1 – v i/v o), where v i and v o designate the reaction velocities in the presence and absence of inhibitor, respectively.

S. aureus ATCC 25923 = test: Antibacterial MIC assay, S. aureus ATCC 25923; assay type: cell-based, Staphylococcus aureus; details: 18 h, visual inspection
Procedure: as §1, §2, §3

[2] = target: T2, cathepsin B (endopeptidase activity) (Homo sapiens, UniProt P07858); test: Determination of inhibition constants, cathepsin B endopeptidase activity; assay type: biochemical; details: substrate Z-RR-AMC
T2 construct: made in house; host or cells: E. coli
Procedure: as §4
Inhibition constants were calculated from the reaction velocities measured at three substrate concentrations (the substrate Z-Arg-Arg-AMC at concentrations of 60, 180, and 360 μM and the substrate Abz-Gly-Ile-Val-Arg-Ala-Lys(Dnp)-OH at concentrations of 1, 3, and 6 μM to assess cathepsin B endopeptidase and exopeptidase activity, respectively) in the presence of seven concentrations of the inhibitor (0, 20, 40, 60, 80, 100, and 200 μM). […] Formation of fluorescent degradation products was monitored as described above. […]

T1 sequence (O60911 114-334): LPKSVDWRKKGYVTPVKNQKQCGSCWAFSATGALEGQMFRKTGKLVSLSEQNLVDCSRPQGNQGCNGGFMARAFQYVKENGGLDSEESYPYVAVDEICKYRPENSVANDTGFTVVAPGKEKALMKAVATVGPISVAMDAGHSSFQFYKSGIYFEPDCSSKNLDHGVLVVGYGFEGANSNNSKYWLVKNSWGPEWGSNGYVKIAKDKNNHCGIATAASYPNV

N#Cc1ccccc1.[C-]#[O+].[C-]#[O+].[C-]#[O+].[O-]n1ccccc1=S.[Re+] [complex 4, fac-[Re(CO)3(pth)(benzonitrile)]]
MIC S. aureus MRSA ATCC 43300 [1]: 12.5 µM | MIC E. coli ATCC 25922 (E. coli ATCC 25922): 50 µM | relative inhibition cathepsin V (cathepsin V): 9.1 ± 1.0% | MIC (S. aureus ATCC 25923): 6.25 µM | mode of inhibition, cathepsin B endopeptidase activity [2]: uncompetitive | Ki′ (dissociation of enzyme–substrate–inhibitor complex), endopeptidase activity ([2]; uncompetitive inhibition): 17.02 ± 1.59 μM and 17.0 ± 1.6 ^c μM
